Measured values taken from patent US20110288116A1, “IAP INHIBITORS” (TETRALOGIC PHARMACEUITCAL CORPORATION, priority 2008, published 2011).

The compounds below were run against T1, cIAP-1 BIR-3 (Homo sapiens, UniProt Q13490) (assay: Fluorescence polarization binding to cIAP-1 BIR-3 (competition with AbuRPF-K(5-Fam)-NH2)). Settings: cells marked (cIAP-1): cIAP-1 BIR-3; reported as range class.
T1 construct: "cIAP-1 BIR-3"
Description: (§1) The binding affinities of the compounds are reported as a Kd value. Briefly, various concentrations of test peptides were mixed with 5 nM of the fluorescently labeled peptide (i.e., a mutated N-terminal Smac peptide—AbuRPF-K(5-Fam)-NH2) and 40 nM of the BIR3 for 15 min at RT in […] of 0.1M Potassium Phosphate buffer, pH 7.5 containing […] bovine g-globulin. Following incubation, the polarization values (mP) were measured on a Victor2V (available from PerkinElmer Life Sciences) using a 485 nm excitation filter and a 520 nm emission filter. The reported Kd values are supplied as ranges (A=<0.1 μM, B=0.1 μM to C=>1 μM to 10 μM, D=>10 μM) and, unless otherwise indicated, are the Kd for XIAP BIR-3.

T1 sequence (Q13490 266-343 limits assumed): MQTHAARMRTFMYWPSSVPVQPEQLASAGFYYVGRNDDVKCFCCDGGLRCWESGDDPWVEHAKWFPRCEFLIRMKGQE

Going from `CCN[C@@H](C)C(=O)N[C@H](C(=O)N1C[C@@H](O)C[C@H]1C[C@H]1CN(C(C)=O)c2ccc(CC)cc21)C1CCCCC1` [CCCC] to `CCN[C@@H](C)C(=O)N[C@H](C(=O)N1CC[C@@H](O)[C@H]1Cc1c(-c2ccc(F)cc2)[nH]c2ccccc12)C1CCCCC1` [III], the Kd falls from > 100 nM to < 100 nM. The second binds more tightly here.

Going from EEEE to `CN[C@@H](C)C(=O)N[C@H](C(=O)N1CCC[C@H]1Cc1cn(C)c2ncccc12)C(C)(C)C` [X], the Kd falls from > 100 nM to < 100 nM.

First: CCN[C@@H](C)C(=O)N[C@H](C(=O)N1CC[C@@H](O)[C@H]1Cc1c[nH]c2ccccc12)C1CC1 [SS′]
Second: CC[C@H](NC)C(=O)N[C@H](C(=O)N1CC[C@@H](O)[C@H]1Cc1c[nH]c2ccccc12)C1CCCCC1 [KK′]
The Kd of the first is higher: > 100 nM for the first, < 100 nM for the second. The second binds more tightly here.

`CN[C@@H](C)C(=O)N[C@H](C(=O)N1CC[C@H](O)[C@H]1Cc1c(Cl)[nH]c2cc(F)ccc12)C1CCCCC1` [W′] and `CCc1ccc2c(c1)[C@@H](C[C@@H]1C[C@H](O)CN1C(=O)[C@@H](NC(=O)[C@H](C)NC)[C@@H](C)OC)CN2C(C)=O` [DDDD] cannot be ordered by Kd: < 100 nM for the first, < 100 nM for the second.

With `CC[C@H](NC)C(=O)N[C@H](C(=O)N1CCC[C@H]1Cc1cn(C)c2ncccc12)C(C)(C)C` [V] the Kd was > 100 nM.

What follows are compounds tested against T2, XIAP BIR-3 (Homo sapiens, UniProt P98170) (assay: Fluorescence polarization binding to XIAP BIR-3 (competition with AbuRPF-K(5-Fam)-NH2)). Settings: XIAP BIR-3 (default where cell does not indicate otherwise); reported as range class.
T2 construct: 40 nM of the BIR3 for 15 min at RT
T2 sequence (P98170 241-356 limits assumed): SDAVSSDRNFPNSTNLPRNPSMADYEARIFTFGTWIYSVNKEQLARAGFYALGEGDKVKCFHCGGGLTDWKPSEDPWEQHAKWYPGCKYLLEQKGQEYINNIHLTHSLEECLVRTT
Description: as §1

`CCN[C@@H](C)C(=O)N[C@H](C(=O)N1CC[C@H](OC)[C@H]1Cc1c[nH]c2ncccc12)[C@@H](C)OC` [HH] and `CCN[C@@H](C)C(=O)N[C@H](C(=O)N1CC[C@H](OC)[C@H]1Cc1c[nH]c2ncccc12)C(C)C` [II] fall in the same range of Kd: 1000 to 10000 nM for the first, 1000 to 10000 nM for the second.

`CC[C@H](NC)C(=O)N[C@H](C(=O)N1CC[C@H](O)[C@H]1Cc1c[nH]c2cc(F)ccc12)C(C)(C)C` [VV] and `CN[C@@H](C)C(=O)N[C@H](C(=O)N1CC[C@H](O)[C@H]1Cc1c[nH]c2cc(F)ccc12)C(C)(C)C` [UU] cannot be ordered by Kd: < 100 nM for the first, < 100 nM for the second.

First: CCN[C@@H](C)C(=O)N[C@H](C(=O)N1CC[C@H](C)[C@H]1Cc1c[nH]c2cc(F)ccc12)[C@@H](C)O [QQ]
Second: CN[C@@H](C)C(=O)N[C@H](C(=O)N1CC[C@H](C)[C@H]1Cc1c[nH]c2cc(F)ccc12)[C@@H](C)O [NN]
The Kd of the first is higher: > 10000 nM for the first, 1000 to 10000 nM for the second. The second binds more tightly here.

`CN[C@@H](C)C(=O)N[C@H](C(=O)N1CC[C@H](OC)[C@H]1Cc1c[nH]c2cc(F)ccc12)C(C)(C)C` [H′] and `CN[C@@H](C)C(=O)N[C@H](C(=O)N1CC[C@H](OC)[C@H]1Cc1c[nH]c2cc(F)ccc12)[C@@H](C)OC` [L′] cannot be ordered by Kd: > 10000 nM for the first, > 10000 nM for the second.

Going from `CN[C@@H](C)C(=O)N[C@H](C(=O)N1CC[C@H](OC)[C@H]1Cc1cn(C)c2cc(F)ccc12)[C@@H](C)OC` [B′] to `CCN[C@@H](C)C(=O)N[C@H](C(=O)N1CC[C@H](OC)[C@H]1Cc1cn(C)c2cc(F)ccc12)[C@@H](C)OC` [A′], the Kd rises from < 100 nM to > 100 nM. The first binds more tightly here.

`CN[C@@H](C)C(=O)N[C@H](C(=O)N1CCC[C@H]1Cc1c[nH]c2ncccc12)C(C)(C)C` [E] and `CN[C@@H](CO)C(=O)N[C@H](C(=O)N1CCC[C@H]1Cc1c[nH]c2ncccc12)C(C)(C)C` [O] cannot be ordered by Kd: < 100 nM for the first, < 100 nM for the second.

`CCN[C@@H](CC)C(=O)N[C@H](C(=O)N1CCC[C@H]1Cc1c[nH]c2ncccc12)[C@@H](C)OC` [G] and `CCN[C@@H](C)C(=O)N[C@H](C(=O)N1CCC[C@H]1Cc1c[nH]c2ncccc12)[C@@H](C)OC` [H] cannot be ordered by Kd: < 100 nM for the first, < 100 nM for the second.

First: CCN[C@@H](C)C(=O)N[C@H](C(=O)N1CC[C@H](OC)[C@H]1Cc1c[nH]c2cc(F)ccc12)[C@@H](C)OC [G′]
Second: CCN[C@@H](C)C(=O)N[C@H](C(=O)N1CC[C@H](C)[C@H]1Cc1c[nH]c2cc(F)ccc12)[C@@H](C)OC [MM]
The Kd of the first is higher: > 10000 nM for the first, 1000 to 10000 nM for the second.

`CN[C@@H](CO)C(=O)N[C@H](C(=O)N1CC[C@H](OC)[C@H]1Cc1c(Cl)[nH]c2cc(F)ccc12)[C@@H](C)OC` [S′] and `CC[C@H](NC)C(=O)N[C@H](C(=O)N1CC[C@H](OC)[C@H]1Cc1c(Cl)[nH]c2cc(F)ccc12)[C@@H](C)OC` [Q′] cannot be ordered by Kd: 1000 to 10000 nM for the first, > 100 nM for the second.

`CN[C@@H](C)C(=O)N[C@H](C(=O)N1CC[C@H](O)[C@H]1Cc1cn(C)c2cc(F)ccc12)[C@@H](C)OC` [YY] and `CCN[C@@H](C)C(=O)N[C@H](C(=O)N1CC[C@H](O)[C@H]1Cc1cn(C)c2cc(F)ccc12)[C@@H](C)OC` [ZZ] cannot be ordered by Kd: < 100 nM for the first, < 100 nM for the second.

Compared with `CN[C@@H](C)C(=O)N[C@H](C(=O)N1CCC[C@H]1Cc1c[nH]c2c1ccc[n+]2[O-])[C@@H](C)OC` [P], `CCN[C@@H](C)C(=O)N[C@H](C(=O)N1CCC[C@H]1Cc1c[nH]c2c1ccc[n+]2[O-])[C@@H](C)OC` [Q] is higher in Kd: < 100 nM for the first, > 100 nM for the second.

`CC[C@H](NC)C(=O)N[C@H](C(=O)N1CC[C@H](OC)[C@H]1Cc1c(Cl)[nH]c2cc(F)ccc12)[C@@H](C)O` [O′] and `CN[C@@H](C)C(=O)N[C@H](C(=O)N1CC[C@H](OC)[C@H]1Cc1c(Cl)[nH]c2cc(F)ccc12)[C@@H](C)O` [N′] cannot be ordered by Kd: > 100 nM for the first, > 100 nM for the second.

`CN[C@@H](CO)C(=O)N[C@H](C(=O)N1CC[C@H](C)[C@H]1Cc1c[nH]c2cc(F)ccc12)[C@@H](C)O` [PP] and `CN[C@@H](CO)C(=O)N[C@H](C(=O)N1CC[C@H](C)[C@H]1Cc1c[nH]c2cc(F)ccc12)[C@@H](C)OC` [LL] cannot be ordered by Kd: > 10000 nM for the first, > 10000 nM for the second.

Compared with `CN[C@@H](C)C(=O)N[C@H](C(=O)N1CC[C@H](OC)[C@H]1Cc1c(Cl)[nH]c2cc(F)ccc12)[C@@H](C)OC` [P′], `CCN[C@@H](C)C(=O)N[C@H](C(=O)N1CC[C@H](OC)[C@H]1Cc1c(Cl)[nH]c2cc(F)ccc12)[C@@H](C)OC` [R′] is higher in Kd: < 100 nM for the first, > 100 nM for the second.

First: CC[C@H](NC)C(=O)N[C@H](C(=O)N1CC[C@H](C)[C@H]1Cc1c[nH]c2cc(F)ccc12)[C@@H](C)OC [KK]
Second: CC[C@H](NC)C(=O)N[C@H](C(=O)N1CC[C@H](O)[C@H]1Cc1c[nH]c2cc(F)ccc12)[C@@H](C)OC [TT]
The Kd of the first is higher: > 10000 nM for the first, < 100 nM for the second.

`CC[C@H](NC)C(=O)N[C@H](C(=O)N1CC[C@H](OC)[C@H]1Cc1c[nH]c2cc(F)ccc12)[C@@H](C)OC` [D′] and `CN[C@@H](C)C(=O)N[C@H](C(=O)N1CC[C@H](C)[C@H]1Cc1c[nH]c2cc(F)ccc12)[C@@H](C)OC` [JJ, N-{1-{1-2-(6-fluoro-1H-indol-3-ylmethyl)-3-methyl-pyrrolidine-1-carbonyl]-2-methoxy-propyl}-2-methylamino-propionamide] cannot be ordered by Kd: > 10000 nM for the first, > 100 nM for the second.

`CCNCC(=O)N[C@H](C(=O)N1CCC[C@H]1Cc1c[nH]c2ncccc12)C(C)(C)C` [N] and `CCNCC(=O)N[C@H](C(=O)N1CCC[C@H]1Cc1c[nH]c2ncccc12)[C@@H](C)OC` [I] cannot be ordered by Kd: 1000 to 10000 nM for the first, > 100 nM for the second.

First: CN[C@@H](C)C(=O)N[C@H](C(=O)N1CC[C@@H](O)[C@H]1Cc1c(-c2ccc(F)cc2)[nH]c2ccccc12)C(C)C [BBB]
Second: CN[C@@H](C)C(=O)N[C@H](C(=O)N1CC[C@@H](O)[C@H]1Cc1c(-c2ccc(F)cc2)[nH]c2ccccc12)C1CCCCC1 [KKK]
The Kd of the first is lower: < 100 nM for the first, > 100 nM for the second.

`CN[C@@H](C)C(=O)N[C@H](C(=O)N1CC[C@@H](O)[C@H]1Cc1c[nH]c2ccccc12)[C@@H](C)OC` [II′] and `CC[C@H](NC)C(=O)N[C@H](C(=O)N1CC[C@@H](O)[C@H]1Cc1c[nH]c2ccccc12)[C@@H](C)OC` [HH′] cannot be ordered by Kd: < 100 nM for the first, < 100 nM for the second.

`CN[C@@H](C)C(=O)N[C@H](C(=O)N1C[C@@H](O)C[C@H]1Cc1c[nH]c2ncccc12)[C@@H](C)OC` [Compound A, N-{1-[4-Hydroxy-2-(1H-pyrrolo[2,3-b]pyridin-3-ylmethyl)-pyrrolidine-1-carbonyl]-2-methoxy-propyl}-2-methylamino-propionamide] and `CN[C@@H](C)C(=O)N[C@H](C(=O)N1CCC[C@H]1Cc1c[nH]c2ncccc12)[C@@H](C)OC` [D] cannot be ordered by Kd: < 100 nM for the first, < 100 nM for the second.

`CC[C@H](NC)C(=O)N[C@H](C(=O)N1C[C@@H](O)C[C@H]1Cc1c[nH]c2ncccc12)C1CCCCC1` [B] and `CN[C@@H](C)C(=O)N[C@H](C(=O)N1CC[C@@H](O)[C@H]1Cc1c[nH]c2ccccc12)C1CCCCC1` [LL′, N-{1-Cyclohexyl-2-[3-hydroxy-2-(1H-indol-3-ylmethyl)-pyrrolidin-1-yl]-2-oxo-ethyl}-2-methylamino-propionamide] cannot be ordered by Kd: < 100 nM for the first, < 100 nM for the second.

`CN[C@@H](C)C(=O)N[C@H](C(=O)N1CCC[C@H]1Cc1cn(C)c2ncccc12)[C@@H](C)OC` [U] and `CC[C@H](NC)C(=O)N[C@H](C(=O)N1CCC[C@H]1Cc1cn(C)c2ncccc12)[C@@H](C)OC` [T] cannot be ordered by Kd: < 100 nM for the first, < 100 nM for the second.

First: CN[C@@H](C)C(=O)N[C@H](C(=O)N1CCC[C@H]1Cc1c[nH]c2c1ccc[n+]2[O-])C(C)(C)C [S]
Second: CCN[C@@H](CC)C(=O)N[C@H](C(=O)N1CCC[C@H]1Cc1c[nH]c2c1ccc[n+]2[O-])[C@@H](C)OC [Compound R]
The Kd of the first is lower: < 100 nM for the first, > 100 nM for the second.

`CN[C@@H](C)C(=O)N[C@H](C(=O)N1CC[C@@H](O)[C@H]1Cc1c[nH]c2ccccc12)[C@@H](C)O` [FF′] and `CC[C@H](NC)C(=O)N[C@H](C(=O)N1CC[C@@H](O)[C@H]1Cc1c[nH]c2ccccc12)[C@@H](C)O` [EE′] cannot be ordered by Kd: < 100 nM for the first, < 100 nM for the second.

`CN[C@@H](C)C(=O)N[C@H](C(=O)N1CC[C@H](O)[C@H]1Cc1c[nH]c2cc(F)ccc12)[C@@H](C)OC` (relative stereo) [RR, trans-2R—[N-{1-[2-(6-Fluoro-1H-indol-3-ylmethyl)-3-hydroxy-pyrrolidine-1-carbonyl]-2-methoxy-propyl}]-2-methylamino-propionamide] and `CN[C@@H](C)C(=O)N[C@H](C(=O)N1CCC[C@H]1Cc1c(-c2ccccc2)n(C)c2ncccc12)[C@@H](C)OC` [Y] cannot be ordered by Kd: < 100 nM for the first, < 100 nM for the second.

Work on `CCN[C@@H](C)C(=O)N[C@H](C(=O)N1CC[C@H](OC)[C@H]1Cc1c[nH]c2ncccc12)C(C)(C)C` [GG] yielded a Kd of 1000 to 10000 nM.
